{"source": "patent US20260234144A1", "about": "(TAY THERAPEUTICS LIMITED, priority 2023, published 2026)", "tested_on": "R223X stop codon in the mutated luciferase gene, ADXC8 luciferase reporter cell line", "test": "cells", "type": "cell-based", "details": "24 h, ADXC8 cells, 24 hours; for Emax: read-out: Fold Over Control, maximum fold response relative to 200 μM G418; for EC (100% of 200 uM G418 response): read-out: pC100%, negative logarithm of the concentration giving the same response as 200 μM G418"}
{"smiles": "Cc1cc(C)c2c(N)nc(NCCCNCC(F)F)nc2n1", "note": "[Example 193]", "values": [{"measurement": "Emax", "result": "100 to 3000", "unit": "%"}, {"measurement": "EC (100% of 200 uM G418 response)", "result": "10 to 100", "unit": "µM"}]}
{"smiles": "Cc1cc(C)c2c(N)nc(NCCCN3Cc4ccccc4C3)nc2n1", "note": "[Example 194]", "values": [{"measurement": "Emax", "result": "100 to 3000", "unit": "%"}, {"measurement": "EC (100% of 200 uM G418 response)", "result": "10 to 100", "unit": "µM"}]}
{"smiles": "Cc1cc(C)c2c(N)nc(NCCCN3CC(F)(F)C3)nc2n1", "note": "[Example 195]", "values": [{"measurement": "Emax", "result": "0 to 100", "unit": "%"}, {"measurement": "EC (100% of 200 uM G418 response)", "result": "> 31.6", "unit": "µM"}]}
{"smiles": "Cc1cc(C)c2c(N)nc(NC3CC4CCC[C@H](C3)N4)nc2n1", "note": "(stereo partly shown) [Example 196]", "values": [{"measurement": "Emax", "result": "100 to 3000", "unit": "%"}, {"measurement": "EC (100% of 200 uM G418 response)", "result": "1 to 10", "unit": "µM"}]}
{"smiles": "Cc1cc(C)c2c(N)nc(NC3CCN(C4COC4)CC3)nc2n1", "note": "[Example 197]", "values": [{"measurement": "Emax", "result": "0 to 100", "unit": "%"}, {"measurement": "EC (100% of 200 uM G418 response)", "result": "> 31.6", "unit": "µM"}]}
{"smiles": "Cc1cc(C)c2c(N)nc(N[C@H]3CN4CCC3CC4)nc2n1", "note": "[Example 198]", "values": [{"measurement": "Emax", "result": "0 to 100", "unit": "%"}, {"measurement": "EC (100% of 200 uM G418 response)", "result": "> 31.6", "unit": "µM"}]}
{"smiles": "Cc1cc(C)c2c(N)nc(NCC3CNC3)nc2n1", "note": "[Example 199]", "values": [{"measurement": "Emax", "result": "0 to 100", "unit": "%"}, {"measurement": "EC (100% of 200 uM G418 response)", "result": "> 31.6", "unit": "µM"}]}
{"smiles": "Cc1cc(C)c2c(N)nc(NC3CC4(CCNCC4)C3)nc2n1", "note": "[Example 200]", "values": [{"measurement": "Emax", "result": "0 to 100", "unit": "%"}, {"measurement": "EC (100% of 200 uM G418 response)", "result": "> 31.6", "unit": "µM"}]}
{"smiles": "COc1ccc(CCN2CCC(Nc3nc(N)c4c(C)cc(C)nc4n3)CC2)cc1", "note": "[Example 201]", "values": [{"measurement": "Emax", "result": "100 to 3000", "unit": "%"}, {"measurement": "EC (100% of 200 uM G418 response)", "result": "1 to 10", "unit": "µM"}]}
{"smiles": "Cc1cc(C)c2c(N)nc(NC3CC4(CNC4)C3)nc2n1", "note": "[Example 202]", "values": [{"measurement": "Emax", "result": "100 to 3000", "unit": "%"}, {"measurement": "EC (100% of 200 uM G418 response)", "result": "10 to 100", "unit": "µM"}]}
{"smiles": "Cc1cc(C)c2c(N)nc(NC3C4CNC[C@@H]43)nc2n1", "note": "(stereo partly shown) [Example 203]", "values": [{"measurement": "Emax", "result": "100 to 3000", "unit": "%"}, {"measurement": "EC (100% of 200 uM G418 response)", "result": "1 to 10", "unit": "µM"}]}
{"smiles": "Cc1cc(C)c2c(N)nc(NC3CCC(N(C)C)CC3)nc2n1", "note": "(stereo not shown) [Example 204]", "values": [{"measurement": "Emax", "result": "100 to 3000", "unit": "%"}, {"measurement": "EC (100% of 200 uM G418 response)", "result": "1 to 10", "unit": "µM"}]}
{"smiles": "Cc1cc(C)c2c(N)nc(NC3CC4CNCC4C3)nc2n1", "note": "(stereo not shown) [Example 205]", "values": [{"measurement": "Emax", "result": "100 to 3000", "unit": "%"}, {"measurement": "EC (100% of 200 uM G418 response)", "result": "1 to 10", "unit": "µM"}]}
{"smiles": "Cc1cc(C)c2c(N)nc(NC3CCNC[C@@H]3F)nc2n1", "note": "(stereo partly shown) [Example 206]", "values": [{"measurement": "Emax", "result": "100 to 3000", "unit": "%"}, {"measurement": "EC (100% of 200 uM G418 response)", "result": "1 to 10", "unit": "µM"}]}
{"smiles": "Cc1cc(C)c2c(N)nc(NC3(CO)CCNCC3)nc2n1", "note": "[Example 207]", "values": [{"measurement": "Emax", "result": "0 to 100", "unit": "%"}, {"measurement": "EC (100% of 200 uM G418 response)", "result": "> 31.6", "unit": "µM"}]}
{"smiles": "Cc1cc(C)c2c(N)nc(NCC3CC4(CNC4)C3)nc2n1", "note": "[Example 208]", "values": [{"measurement": "Emax", "result": "0 to 100", "unit": "%"}, {"measurement": "EC (100% of 200 uM G418 response)", "result": "> 31.6", "unit": "µM"}]}
{"smiles": "Cc1cc(C)c2c(N)nc(N[C@H]3CN[C@H](C)C3)nc2n1", "note": "[Example 209]", "values": [{"measurement": "Emax", "result": "100 to 3000", "unit": "%"}, {"measurement": "EC (100% of 200 uM G418 response)", "result": "1 to 10", "unit": "µM"}]}
{"smiles": "Cc1cc(C)c2c(N)nc(NC3COC4(CNC4)C3)nc2n1", "note": "(stereo not shown) [Example 210]", "values": [{"measurement": "Emax", "result": "100 to 3000", "unit": "%"}, {"measurement": "EC (100% of 200 uM G418 response)", "result": "1 to 10", "unit": "µM"}]}
{"smiles": "Cc1cc(C)c2c(N)nc(NC3C[C@H]4CCC[C@@H](C3)N4C)nc2n1", "note": "(stereo partly shown) [Example 211]", "values": [{"measurement": "Emax", "result": "100 to 3000", "unit": "%"}, {"measurement": "EC (100% of 200 uM G418 response)", "result": "1 to 10", "unit": "µM"}]}
{"smiles": "Cc1cc(C)c2c(N)nc(NC3CCNCC3(C)C)nc2n1", "note": "(stereo not shown) [Example 212]", "values": [{"measurement": "Emax", "result": "100 to 3000", "unit": "%"}, {"measurement": "EC (100% of 200 uM G418 response)", "result": "1 to 10", "unit": "µM"}]}
{"smiles": "CCN1CCC(Nc2nc(N)c3c(C)cc(C)nc3n2)CC1", "note": "[Example 213]", "values": [{"measurement": "Emax", "result": "100 to 3000", "unit": "%"}, {"measurement": "EC (100% of 200 uM G418 response)", "result": "1 to 10", "unit": "µM"}]}
{"smiles": "Cc1cc(C)c2c(N)nc(NC3CNC3)nc2n1", "note": "[Example 214]", "values": [{"measurement": "Emax", "result": "0 to 100", "unit": "%"}, {"measurement": "EC (100% of 200 uM G418 response)", "result": "> 31.6", "unit": "µM"}]}
{"smiles": "Cc1cc(C)c2c(N)nc(N[C@H]3CCCN(Cc4ccccc4)C3)nc2n1", "note": "[Example 215]", "values": [{"measurement": "Emax", "result": "100 to 3000", "unit": "%"}, {"measurement": "EC (100% of 200 uM G418 response)", "result": "1 to 10", "unit": "µM"}]}
{"smiles": "Cc1cc(C)c2c(N)nc(NC[C@@H]3CCNC3)nc2n1", "note": "[Example 217]", "values": [{"measurement": "EC (100% of 200 uM G418 response)", "result": "1 to 10", "unit": "µM"}]}
{"smiles": "Cc1cc(C)c2c(N)nc(NC3C[C@H]4CC[C@@H](C3)N4C)nc2n1", "note": "(stereo partly shown) [Example 218]", "values": [{"measurement": "Emax", "result": "100 to 3000", "unit": "%"}, {"measurement": "EC (100% of 200 uM G418 response)", "result": "1 to 10", "unit": "µM"}]}
{"smiles": "Cc1cc(C)c2c(N)nc(NC3(CN(C)C)CC3)nc2n1", "note": "[Example 219, N^2-(1-((dimethylamino)methyl)cyclopropyl)-5,7-dimethylpyrido[2,3-d]pyrimidine-2,4-diamine]", "values": [{"measurement": "Emax", "result": "0 to 100", "unit": "%"}, {"measurement": "EC (100% of 200 uM G418 response)", "result": "> 31.6", "unit": "µM"}]}
{"smiles": "Cc1cc(C)c2c(N)nc(N[C@H]3CCNCC3(F)F)nc2n1", "note": "[Example 220]", "values": [{"measurement": "Emax", "result": "100 to 3000", "unit": "%"}, {"measurement": "EC (100% of 200 uM G418 response)", "result": "1 to 10", "unit": "µM"}]}
{"smiles": "CCCN1CCC(Nc2nc(N)c3c(C)cc(C)nc3n2)CC1", "note": "[Example 221]", "values": [{"measurement": "EC (100% of 200 uM G418 response)", "result": "1 to 10", "unit": "µM"}]}
{"smiles": "Cc1cc(C)c2c(N)nc(NC3(C)CNC3)nc2n1", "note": "[Example 222]", "values": [{"measurement": "Emax", "result": "0 to 100", "unit": "%"}, {"measurement": "EC (100% of 200 uM G418 response)", "result": "> 31.6", "unit": "µM"}]}
{"smiles": "COCCN1CC[C@@H](Nc2nc(N)c3c(C)cc(C)nc3n2)C1", "note": "[Example 223, (R)—N^2-(1-(2-methoxyethyl)pyrrolidin-3-yl)-5,7-dimethylpyrido[2,3-d]pyrimidine-2,4-diamine]", "values": [{"measurement": "Emax", "result": "100 to 3000", "unit": "%"}, {"measurement": "EC (100% of 200 uM G418 response)", "result": "10 to 100", "unit": "µM"}]}
{"smiles": "Cc1cc(C)c2c(N)nc(N[C@@H]3CCN(CCO)C3)nc2n1", "note": "[Example 224, (R)-2-(3-((4-amino-5,7-dimethylpyrido[2,3-d]pyrimidin-2-yl)amino)pyrrolidin-1-yl)ethan-1-ol]", "values": [{"measurement": "Emax", "result": "100 to 3000", "unit": "%"}, {"measurement": "EC (100% of 200 uM G418 response)", "result": "10 to 100", "unit": "µM"}]}
{"smiles": "Cc1cc(C)c2c(N)nc(N[C@H]3CN(C)C[C@@H]3O)nc2n1", "note": "[Example 226, (3S,4S)-4-((4-amino-5,7-dimethylpyrido[2,3-d]pyrimidin-2-yl)amino)-1-methylpyrrolidin-3-ol]", "values": [{"measurement": "Emax", "result": "100 to 3000", "unit": "%"}, {"measurement": "EC (100% of 200 uM G418 response)", "result": "0.1 to 1", "unit": "µM"}]}
{"smiles": "CNc1nc(N[C@@H]2CCNC2)nc2nc3c(c(C)c12)CCC3", "note": "[Example 231, (R)—N^4,5-dimethyl-N^2-(pyrrolidin-3-yl)-7,8-dihydro-6H-cyclopenta[5,6]pyrido[2,3-d]pyrimidine-2,4-diamine]", "values": [{"measurement": "Emax", "result": "100 to 3000", "unit": "%"}, {"measurement": "EC (100% of 200 uM G418 response)", "result": "0.1 to 1", "unit": "µM"}]}
